The values that follow come from ChEMBL document CHEMBL3864183, “Development of ML390: A Human DHODH Inhibitor That Induces Differentiation in Acute Myeloid Leukemia” (ACS Med Chem Lett, 2016).

The EC50 is the concentration at which the effect is half-maximal. As usually defined, the IC50 is the concentration needed to halve the response being measured. A word on the solubility: it is the dissolved amount per volume that the medium holds. A low value points to a poorly soluble substance.

The structures appear in SMILES notation. Values after ≈ are worked out from the molar mass of the structure shown.

In one data set the test system is U-937. In words: Induction of human U937 cell differentiation after 4 days by flow cytometry. The note with it: U-937, 96 h. It is filed as functional, cell-based. Background: Flow cytometry measures light scatter and fluorescence of single cells or particles in a stream.
For the next data set, the system named is THP-1. Kind of data set: Induction of human THP1 cell differentiation after 4 days by flow cytometry. Format: functional, cell-based. To be noted: THP-1, 96 h.
Data set [1] has as its target Dihydroorotate dehydrogenase (quinone), mitochondrial (Homo sapiens, UniProt Q02127). Kind of data set: Inhibition of human recombinant DHODH.
Data set [2] in a line: Induction of bone marrow cell differentiation isolated from ER-HOXA9 fusion protein expressed mouse harboring GFP-lysozyme assessed as upregulation of CD11b/MAC1 after 4 days by flow cytometry. Format: functional, cell-based. The note with it: 96 h.
Data set [3] can be described thus: Stability of the compound in PBS for 24 hrs. To be noted: buffer. Format: physicochemical.
A short description of data set [4]: Protein binding in human plasma. Format: ADME, cell-free. To be noted: read-out: PPB.
Data set [5] is described as follows: Solubility of the compound in PBS at pH 7.4. Format: physicochemical.
The nature of data set [6]: Stability of the compound in human plasma for 5 hrs. Format: ADME, cell-free.
Data set [7] in a line: Protein binding in mouse plasma. Format: ADME, cell-free. To be noted: read-out: PPB.

Dihydroorotate dehydrogenase (quinone), mitochondrial, sequence (Q02127 whole entry, the tested form may be a part): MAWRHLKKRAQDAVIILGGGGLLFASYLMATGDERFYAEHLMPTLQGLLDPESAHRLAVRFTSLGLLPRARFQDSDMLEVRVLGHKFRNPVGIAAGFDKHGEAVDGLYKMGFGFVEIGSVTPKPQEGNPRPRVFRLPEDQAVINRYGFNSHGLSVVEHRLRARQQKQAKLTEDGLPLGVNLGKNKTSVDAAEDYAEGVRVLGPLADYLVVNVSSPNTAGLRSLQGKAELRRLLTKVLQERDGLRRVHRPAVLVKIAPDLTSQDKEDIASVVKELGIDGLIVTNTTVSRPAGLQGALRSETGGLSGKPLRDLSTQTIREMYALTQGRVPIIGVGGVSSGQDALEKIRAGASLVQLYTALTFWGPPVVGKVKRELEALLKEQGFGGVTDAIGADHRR

With `Cc1c(Nc2ncccc2C(=O)O)cccc1C(F)(F)F` [FLUNIXIN], the figures for the 50% effective concentration (EC50) (in the data set with U-937; in the data set with THP-1; in data set [2]) were above 20 µM, above 20 µM and 16 µM, respectively. The IC50 in data set [1] was 8 µM.

In the case of `O=C(O)c1cccnc1Nc1ccc(Cl)cc1`, the EC50 in the data set on U-937 amounted to 6.1 µM; with THP-1 it was 10.7 µM; in data set [2], 3 µM. In data set [1], the 50% inhibitory concentration (IC50) worked out at 0.4 µM.

In the case of `COc1ccc(C(=O)NCCC(=O)N[C@@H]2CCCc3ccccc32)cc1`, the values for the EC50 (in the data set on U-937; in the data set with THP-1; in data set [2]) were 12 µM, 5.1 µM and 5 µM, respectively. Further, in data set [1], the IC50 is 3.6 µM.

Take `O=C(O)c1cccnc1Nc1ccccc1`: the concentration giving a half-maximal response (EC50) (in the data set with U-937; in the data set on THP-1; in data set [2]) was above 20 µM in each case. For the same compound, the half-maximal inhibitory concentration (IC50) in data set [1] was 17.4 µM.

`O=C(O)c1ccc(Cl)cc1Nc1ccccc1`: the EC50 (in the data set with U-937; in the data set on THP-1; in [2]) was above 20 µM throughout. The half-inhibitory concentration (IC50) in [1] was above 20 µM.

On to `O=C(O)c1cccnc1Nc1ccc(OC(F)(F)F)cc1`, for which the half-maximal effective concentration (EC50) with U-937 worked out at 5.6 µM; in the data set with THP-1 it was 7.7 µM; in data set [2], 3.7 µM. For the same compound, the IC50 in [1] was 0.5 µM.

Turning to `O=C(CNC(=O)c1ccc(OC(F)(F)F)cc1)N[C@@H]1CCCc2ccccc21`, in [1], the IC50 is above 20 µM.

As to `COc1ccc(Nc2ccccc2C(=O)O)cc1`, the half-maximal effective concentration (EC50) (with U-937; with THP-1; in data set [2]) was above 20 µM each time. Further, in data set [1], the IC50 was determined as 10 µM.

With `O=C(CCNC(=O)c1ccc(OC(F)(F)F)cc1)N[C@@H]1CCCc2ccccc21`, the EC50 was 8.8 µM in the data set with U-937, 6.5 µM in the data set on THP-1 and 1.8 µM in data set [2]. Further, the Stability result in [3] and in data set [6] was “Stable” in each case. Moreover, in data set [1], the half-inhibitory concentration (IC50) amounted to 0.56 µM. Further, the fraction unbound in [4] and in data set [7] was 0.01 throughout. Moreover, in data set [5], the concentration in solution (solubility) was 2.5 µM (≈ 1.02 µg/mL).

With `O=C(CCCNC(=O)c1ccc(Cl)c(Cl)c1)N[C@@H]1CCCc2ccccc21`, in data set [1], the IC50 is above 20 µM.

Regarding `O=C(CCCNC(=O)c1ccc(C(F)(F)F)cc1)N[C@@H]1CCCc2ccccc21`, the half-inhibitory concentration (IC50) in data set [1] was above 20 µM.

For the compound `O=C(CCNC(=O)c1ccc(Cl)cc1)N[C@@H]1CCCc2ccccc21`, the EC50 with U-937 worked out at 5.6 µM; in the data set with THP-1 it was 3.2 µM; in data set [2] it was 4.5 µM. In addition, the IC50 in data set [1] stood at 1.3 µM.

In the case of `O=C(CNC(=O)c1ccc(Cl)cc1)N[C@@H]1CCCc2ccccc21`, in data set [1], the IC50 was above 20 µM.

For the compound `Cc1c(Cl)cccc1Nc1ncccc1C(=O)O` [CLONIXIN], the concentration for a half-maximal effect (EC50) (in the data set with U-937; in the data set with THP-1; in [2]) was above 20 µM each time. Further, in data set [1], the IC50 was found to be 13 µM.

Take `Cc1ccc(C(=O)NCCC(=O)N[C@@H]2CCCc3ccccc32)cc1`: the figures for the EC50 (in the data set on U-937; in the data set with THP-1; in data set [2]) were 4.2 µM, 2.7 µM and 8.1 µM, respectively. For the same compound, the IC50 in data set [1] came to 1.9 µM.

Turning to `N#Cc1ccc(C(=O)NCCC(=O)N[C@@H]2CCCc3ccccc32)cc1`, in data set [1], the 50% inhibitory concentration (IC50) was determined as 8.9 µM.

With `O=C(O)c1cccnc1Nc1cccc(C(F)(F)F)c1` [NIFLUMIC ACID], the EC50 (with U-937; in the data set with THP-1; in data set [2]) was above 20 µM in each case. Also, the IC50 in data set [1] stood at 17 µM.

As for `O=C(CNC(=O)c1ccc(C(F)(F)F)cc1)N[C@@H]1CCCc2ccccc21`, the half-maximal inhibitory concentration (IC50) in [1] is above 20 µM.

For `O=C(CCCNC(=O)c1ccc(Cl)cc1)N[C@@H]1CCCc2ccccc21`, in [1], the half-inhibitory concentration (IC50) is above 20 µM.

As to `O=C(CNC(=O)c1ccc(Cl)c(Cl)c1)N[C@@H]1CCCc2ccccc21`, in data set [1], the IC50 was above 20 µM.

Take `O=C(CCNC(=O)c1ccc2c(c1)OC(F)(F)O2)N[C@@H]1CCCc2ccccc21`: the EC50 with U-937 was 4.4 µM; with THP-1, 4.3 µM; in data set [2] it was 4.7 µM. In addition, in data set [1], the 50% inhibitory concentration (IC50) worked out at 2.7 µM.

Turning to `Cc1c(-c2ccc(-c3ccccc3F)cc2)nc2ccc(F)cc2c1C(=O)O` [BREQUINAR], the EC50 in the data set with U-937 was found to be 0.044 µM; in the data set with THP-1, 0.094 µM; in data set [2] it was 0.51 µM.

As for `O=C(O)c1cccnc1Nc1ccc(F)cc1`, the EC50 (with U-937; in the data set with THP-1; in data set [2]) was above 20 µM in each case. The concentration for half-maximal inhibition (IC50) in data set [1] is 2.8 µM.

`O=C(CCCNC(=O)c1ccc(OC(F)(F)F)cc1)N[C@@H]1CCCc2ccccc21`: in [1], the half-inhibitory concentration (IC50) is above 20 µM.

As to `O=C(CCNC(=O)c1cccc(Cl)c1)N[C@@H]1CCCc2ccccc21`, the EC50 in the data set on U-937 worked out at 8.8 µM; in the data set with THP-1 it was 6.5 µM; in data set [2], 7.9 µM. The IC50 in [1] is 7.4 µM.

For the compound `O=C(CCNC(=O)c1ccc(C(F)(F)F)cc1)N[C@@H]1CCCc2ccccc21`, the EC50 in the data set on U-937 amounted to 2.7 µM; in the data set on THP-1, 2.5 µM; in data set [2], 3.6 µM. Also, the IC50 in data set [1] was determined as 0.91 µM.

`O=C(O)c1ccccc1Nc1ccc(Cl)cc1`: the EC50 in the data set with U-937 is 17 µM; with THP-1, above 20 µM; in data set [2], 10 µM. For the same compound, the 50% inhibitory concentration (IC50) in [1] amounted to 0.42 µM.

Consider `O=C(CCNC(=O)c1ccccc1)N[C@@H]1CCCc2ccccc21`, for which, in data set [1], the 50% inhibitory concentration (IC50) worked out at 12.4 µM.

Turning to `O=C(CCNC(=O)c1ccc(Cl)c(Cl)c1)N[C@@H]1CCCc2ccccc21`, the results for the EC50 (in the data set with U-937; with THP-1; in data set [2]) were 2.4 µM, 2.5 µM and 3.2 µM, respectively. Moreover, in data set [1], the 50% inhibitory concentration (IC50) is 1.5 µM.

Regarding `O=C(CCNC(=O)c1ccc(F)cc1)N[C@@H]1CCCc2ccccc21`, in data set [1], the IC50 turned out to be 9.5 µM.
